Data reported in US5364885A, “Reduction of hair growth” (priority 1992, dated 1994).
Where a name gives a salt, the structure may show the parent alone. Read-outs that look alike come from different tables or passages of the source.

Key:
[1] = test system: hamster flank organ hair growth; assay: Inhibition of hair growth: hamster flank organ hair mass after thirteen topical applications; assay type: in vivo, male intact Golden Syrian hamsters; conditions: 13 applications; for inhibition at 5 % strength / inhibition at 10 % strength / inhibition at 20 % strength / inhibition at 30 % strength: Mesocricetus auratus, pH 7-8, read-out: % Inhibition (± SEM)
Description: A vehicle or carrier was prepared having the following composition:
A group of male intact Golden Syrian hamsters was provided. These animals were considered acceptable models for human beard hair growth in that they display oval shaped flank organs, one on each side, each about 8 mm. in major diameter, which grow thick black and coarse hair similar to human beard hair. These organs produce hair in response to androgens in the hamster. The flank organs of each hamster were depilated by applying a thioglycolate based chemical depilatory (Surgex), and to one organ of each animal was applied 10-25 μl. of vehicle alone once a day, while to the other organ of each animal was applied an equal amount of vehicle containing the analog. After thirteen applications (one application per day for five days a week), the flank organs were shaved and the amount of recovered hair (hair mass) from each was weighed. Percent-reduction of hair growth was calculated by subtracting the hair mass (mg) value of the test compound treated side from the hair mass value of the vehicle treated side; the delta value obtained was then divided by the hair mass value of the vehicle treated side, and the resultant number was multiplied by 100.

hamster flank organ = conditions: topical; cited from earlier work
sebum excretion = conditions: topical, cited from earlier work
hair growth = conditions: intact males; Table 3, Group VI vs. Group X; cited from earlier work
animal sebaceous glands = conditions: female vs male; cited from earlier work
[2] = 5% by weight, 10-25 μl once a day, pH 7-8
[3] = 10% by weight, 10-25 μl once a day, pH 7-8
[4] = 20% by weight, 10-25 μl once a day, pH 7-8
[5] = 30% by weight, 10-25 μl once a day, pH 7-8
[6] = 5% by weight, 10-25 μl once a day, vs vehicle treated side
[7] = 10% by weight, 10-25 μl once a day, vs vehicle treated side
[8] = 20% by weight, 10-25 μl once a day, vs vehicle treated side
[9] = 30% by weight, 10-25 μl once a day, vs vehicle treated side

SMILES	Hamster Flank Organ Hair Mass, Treated (± SEM) [1, 2]	Hamster Flank Organ Hair Mass, Treated (± SEM) [1, 3]	Hamster Flank Organ Hair Mass, Treated (± SEM) [1, 4]	Hamster Flank Organ Hair Mass, Treated (± SEM) [1, 5]	inhibition at 5 % strength [1, 6] [%]	inhibition at 10 % strength [1, 7] [%]	inhibition at 20 % strength [1, 8] [%]	inhibition at 30 % strength [1, 9] [%]	reduction in hair growth of the hamster flank organ (hamster flank organ)	reduction in the size of the flank organ (hamster flank organ)	Hamster Flank Organ Hair Mass, Treated (± SEM) ([1]; 10% comparison composition, pH 4.0)	% Inhibition (± SEM) ([1]; 10% comparison composition, vs vehicle treated side, pH 4.0) [%]	reducing sebum excretion rates (sebum excretion; females)	reducing sebum excretion rates (sebum excretion; males)	effect on inhibition of hair growth (hair growth)	inhibition of testosterone metabolism and lipogenesis in sebaceous glands (animal sebaceous glands)
CC(C)(CO)C(O)C(=O)NCCCO (racemic) [DL-PTYA, D, or DL, Pantothenyl alcohol]	2.670 ± .23 mg	1.490 ± .30 mg	1.450 ± .21 mg	.708 ± .13 mg	-8.28 ± 7.51	40.3 ± 7.35	51.1 ± 7.49	70.8 ± 5.95								
CCC[C@]1(O)CC[C@H]2[C@@H]3CCC4=CC(=O)CC[C@]4(C)[C@H]3CC[C@@]21C [17β-hydroxy-17α-propylandrost-4-en-3-one]									substantial reduction in hair growth	reduction in the size of the flank organ						
CC(C)(CO)[C@@H](O)C(=O)NCCCO [D-PTYA, D, or DL, Pantothenyl alcohol]	1.069 ± .15 mg	1.095 ± .32 mg	.899 ± .30 mg	1.069 ± .26 mg	55.9 ± 4.32	48.3 ± 11	31.4 ± 13.8	34.8 ± 8.49								
NCCC[C@](N)(C(=O)O)C(F)F [DFMO, α-difluoromethyl ornithine, reference compound]											.631 ± .12 mg	66.10 ± 7.05				
CC(C)(CO)[C@@H](O)C(=O)NCCC(=O)O [PTA, DPantothenic acid hemicalcium salt]	.738 ± .13 mg	.424 ± .11 mg	.270 ± .12 mg	.160 ± .06 mg	67.3 ± 5.81	71.3 ± 8.96	85.8 ± 5.75	92.7 ± 2.76								
CC(C)(CO)[C@H](O)C(=O)NCCC(=O)[O-].[Na+] [PTAss, D-Pantothenic acid monosodium salt]	.644 ± .15 mg	.364 ± .10 mg	.500 ± .10 mg	.396 ± .95 mg	72.6 ± 5.18	80.1 ± 4.38	74.2 ± 4.83	79.8 ± 4.75								
CC(=O)[C@H]1CC[C@H]2[C@@H]3CCC4=CC(=O)CC[C@]4(C)[C@H]3CC[C@]12C [progesterone]													effective in reducing sebum excretion rates in females	without effect in males	doubtful	effective in the female but not in the male
